PubChem BioAssay (NCI)
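1) Cells in 96-well plates. 2) Compound, 48 h, 5 concentrations. 3) Linear interpolation between surrounding doses. 4) Unreached endpoint = highest concentration. TGI is the concentration that stops growth completely.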

Tests used:
Test in all cases: DTP human tumour cell line panel, 48 h
[1] = tested on: SW-620 colon
[2] = tested on: MOLT-4 leukemia
[3] = tested on: ACHN renal
[4] = tested on: MDA-MB-231 breast
[5] = tested on: NCI-H522 lung
[6] = tested on: SK-OV-3 ovarian
[7] = tested on: DU-145 prostate
[8] = tested on: NCI-H23 lung
[9] = tested on: HOP-62 NSCLC
[10] = tested on: HCT-116 colon
[11] = tested on: A498 renal
[12] = tested on: PC-3 prostate
[13] = tested on: EKVX NSCLC
[14] = tested on: HOP-92 NSCLC
[15] = tested on: HT29 colon
[16] = tested on: OVCAR-3 ovarian
[17] = tested on: A549 NSCLC
[18] = tested on: NCI/ADR-RES ovarian
[19] = tested on: SF-539 CNS
[20] = tested on: SNB-75 CNS
[21] = tested on: SF-268 CNS
[22] = tested on: COLO 205 colon
[23] = tested on: 786-0 renal
[24] = tested on: M14 melanoma
[25] = tested on: BT-549 breast
[26] = tested on: OVCAR-4 ovarian
[27] = tested on: T-47D breast
[28] = tested on: IGROV1 ovarian
[29] = tested on: K-562 leukemia
[30] = tested on: HCC-2998 colon
[31] = tested on: MALME-3M melanoma
[32] = tested on: SF-295 CNS
[33] = tested on: OVCAR-8 ovarian
[34] = tested on: RXF 393 renal
[35] = tested on: NCI-H226 lung
[36] = tested on: U251 CNS
[37] = tested on: UACC-257 melanoma
[38] = tested on: SK-MEL-28 melanoma
[39] = tested on: SK-MEL-5 melanoma
[40] = tested on: MCF7 breast
[41] = tested on: SN12C renal
[42] = tested on: HCT-15 colon
[43] = tested on: CAKI-1 renal
[44] = tested on: MDA-N
[45] = tested on: CCRF-CEM leukemia
[46] = tested on: SNB-19 CNS
[47] = tested on: UO-31 renal
[48] = tested on: RPMI-8226 leukemia
[49] = tested on: HS 578T breast
[50] = tested on: MDA-MB-435
[51] = tested on: HL-60(TB) leukemia
[52] = tested on: UACC-62 melanoma
[53] = tested on: TK-10 renal
[54] = tested on: LOX IMVI melanoma
[55] = tested on: KM12 colon
[56] = tested on: NCI-H460 lung
[57] = tested on: SK-MEL-2 melanoma
[58] = tested on: OVCAR-5 ovarian
[59] = tested on: SR leukemia

CC(C)(Br)C(Br)CCC(C)(Br)C(Br)CO (centres undefined)
TGI [1]: > 10 µM
TGI [2]: > 10 µM
TGI [3]: > 10 µM
TGI [4]: > 10 µM
TGI [5]: > 10 µM
TGI [6]: > 10 µM
TGI [7]: > 10 µM
TGI [8]: > 10 µM
TGI [9]: > 10 µM
TGI [10]: > 10 µM
TGI [11]: > 10 µM
TGI [12]: > 10 µM
TGI [13]: > 10 µM
TGI [14]: > 10 µM
TGI [15]: > 10 µM
TGI [16]: > 10 µM
TGI [17]: > 10 µM
TGI [18]: > 10 µM
TGI [19]: > 10 µM
TGI [20]: > 10 µM
TGI [21]: > 10 µM
TGI [22]: > 10 µM
TGI [23]: > 10 µM
TGI [24]: > 10 µM
TGI [25]: > 10 µM
TGI [26]: > 10 µM
TGI [27]: > 10 µM
TGI [28]: > 10 µM
TGI [29]: > 10 µM
TGI [30]: > 10 µM
TGI [31]: > 10 µM
TGI [32]: > 10 µM
TGI [33]: > 10 µM
TGI [34]: > 10 µM
TGI [35]: > 10 µM
TGI [36]: > 10 µM
TGI [37]: > 10 µM
TGI [38]: > 10 µM
TGI [39]: > 10 µM
TGI [40]: > 10 µM
TGI [41]: > 10 µM
TGI [42]: > 10 µM
TGI [43]: > 10 µM
TGI [44]: > 10 µM
TGI [45]: > 10 µM
TGI [46]: > 10 µM
TGI [47]: > 10 µM
TGI [48]: > 10 µM
TGI [49]: > 10 µM
TGI [50]: > 10 µM

COc1ccc(OCc2nc3cc(C(F)(F)F)ccc3nc2-c2ccccc2)cc1
TGI [1]: > 100 µM
TGI [51]: > 100 µM
TGI [2]: > 100 µM
TGI [3]: > 100 µM
TGI [4]: > 100 µM
TGI [6]: > 100 µM
TGI [7]: > 100 µM
TGI [8]: > 100 µM
TGI [9]: > 100 µM
TGI [10]: > 100 µM
TGI [11]: > 100 µM
TGI [12]: > 100 µM
TGI [13]: > 100 µM
TGI [14]: > 100 µM
TGI [15]: > 100 µM
TGI [16]: > 100 µM
TGI [17]: > 100 µM
TGI [18]: > 100 µM
TGI [19]: > 100 µM
TGI [20]: > 100 µM
TGI [21]: > 100 µM
TGI [22]: > 100 µM
TGI [23]: > 100 µM
TGI [24]: > 100 µM
TGI [25]: > 100 µM
TGI [52]: > 100 µM
TGI [26]: > 100 µM
TGI [27]: > 100 µM
TGI [53]: > 100 µM
TGI [29]: > 100 µM
TGI [30]: > 100 µM
TGI [31]: > 100 µM
TGI [32]: > 100 µM
TGI [33]: > 100 µM
TGI [34]: > 100 µM
TGI [54]: > 100 µM
TGI [35]: > 100 µM
TGI [36]: > 100 µM
TGI [37]: > 100 µM
TGI [38]: > 100 µM
TGI [39]: > 100 µM
TGI [40]: > 100 µM
TGI [41]: > 100 µM
TGI [42]: > 100 µM
TGI [43]: > 100 µM
TGI [55]: > 100 µM
TGI [56]: > 100 µM
TGI [44]: > 100 µM
TGI [45]: > 100 µM
TGI [46]: > 100 µM
TGI [57]: > 100 µM
TGI [47]: > 100 µM
TGI [48]: > 100 µM
TGI [49]: > 100 µM
TGI [50]: > 100 µM
TGI [58]: > 100 µM

C/C(=N/NC(=S)Nc1ccc([N+](=O)[O-])cc1)c1cccc(/C(C)=N\NC(=S)Nc2ccc([N+](=O)[O-])cc2)n1
TGI [1]: 16.1 µM
TGI [3]: 1.14 µM
TGI [4]: 17.7 µM
TGI [5]: 21.2 µM
TGI [6]: 10.7 µM
TGI [7]: > 37.7 µM
TGI [8]: 12.2 µM
TGI [9]: 11.1 µM
TGI [10]: 12.2 µM
TGI [11]: 9.74 µM
TGI [12]: 18.7 µM
TGI [13]: 12.8 µM
TGI [14]: 11.6 µM
TGI [15]: 16 µM
TGI [17]: 11.4 µM
TGI [18]: > 29.9 µM
TGI [19]: 2.28 µM
TGI [20]: > 44.3 µM
TGI [21]: > 100 µM
TGI [22]: 15.7 µM
TGI [23]: 11.6 µM
TGI [24]: 2.7 µM
TGI [25]: 2.36 µM
TGI [52]: 2.87 µM
TGI [26]: 49.4 µM
TGI [27]: 24.2 µM
TGI [53]: 15.7 µM
TGI [28]: 8.11 µM
TGI [29]: > 39.4 µM
TGI [30]: 21.5 µM
TGI [31]: 9.13 µM
TGI [32]: 8.33 µM
TGI [34]: 4.73 µM
TGI [54]: 12.7 µM
TGI [35]: 1.84 µM
TGI [36]: 14.6 µM
TGI [37]: 13.1 µM
TGI [38]: > 100 µM
TGI [39]: 7.29 µM
TGI [40]: 3.86 µM
TGI [41]: 14.4 µM
TGI [42]: 2.67 µM
TGI [43]: 8.06 µM
TGI [55]: > 35.7 µM
TGI [56]: 9.11 µM
TGI [44]: 15.1 µM
TGI [45]: > 55.8 µM
TGI [46]: 17.8 µM
TGI [59]: 2.33 µM
TGI [57]: 23.6 µM
TGI [47]: 4.97 µM
TGI [48]: 8.8 µM
TGI [49]: > 81.7 µM
TGI [50]: > 38.7 µM
TGI [58]: 21.7 µM

COC(=O)c1ccccc1CC1Cc2ccc3c(c2C1=O)CCC3 (centres undefined)
TGI [1]: > 100 µM
TGI [51]: 84.8 µM
TGI [2]: > 100 µM
TGI [3]: > 100 µM
TGI [4]: > 100 µM
TGI [5]: 88 µM
TGI [6]: > 100 µM
TGI [7]: > 100 µM
TGI [8]: > 100 µM
TGI [9]: > 100 µM
TGI [10]: > 100 µM
TGI [12]: > 100 µM
TGI [13]: > 100 µM
TGI [14]: 94.9 µM
TGI [15]: > 100 µM
TGI [16]: > 100 µM
TGI [17]: > 100 µM
TGI [18]: > 100 µM
TGI [19]: > 100 µM
TGI [20]: 80.7 µM
TGI [21]: > 100 µM
TGI [22]: > 100 µM
TGI [23]: > 100 µM
TGI [24]: > 100 µM
TGI [25]: > 100 µM
TGI [52]: > 100 µM
TGI [26]: > 100 µM
TGI [27]: > 100 µM
TGI [53]: > 100 µM
TGI [28]: > 100 µM
TGI [29]: > 100 µM
TGI [30]: > 100 µM
TGI [31]: > 100 µM
TGI [32]: > 100 µM
TGI [33]: > 100 µM
TGI [34]: > 100 µM
TGI [54]: > 100 µM
TGI [35]: > 100 µM
TGI [36]: > 100 µM
TGI [37]: > 100 µM
TGI [38]: > 100 µM
TGI [39]: 62.3 µM
TGI [40]: 90.3 µM
TGI [41]: > 100 µM
TGI [42]: > 100 µM
TGI [43]: > 100 µM
TGI [55]: > 100 µM
TGI [56]: > 100 µM
TGI [44]: > 100 µM
TGI [45]: > 100 µM
TGI [46]: > 100 µM
TGI [59]: > 100 µM
TGI [57]: > 100 µM
TGI [47]: > 100 µM
TGI [48]: > 100 µM
TGI [49]: > 100 µM
TGI [50]: 78.7 µM
TGI [58]: > 100 µM
